Columns and labels:
[1] = tested on: Escherichia coli 1-894-1; test: microbe, parasite or virus in culture
Experimental: Isolated colonies of Escherichia coli 1-894-1 (ATCC, Manassas, Virginia, USA) were picked from the bacterial culture plate and inoculated into 4-5 mL of TSB liquid medium for all bacterial strains. TSB liquid medium was prepared by dissolving a mixture of 17.0 g pancreatic digest of casein, 3.0 g papaic digest of soybean, 2.5 g dextrose, 5.0 g sodium chloride, and 2.5 g dipotassium phosphate in a final volume of 1,000 mL of distilled water, stirring for at least for 20 minutes, and then sterilizing under high pressure ([…] for 20 minutes at 121° C.). To achieve log phase growth, bacterial cultures were incubated at 37° C. for 2-6 hours based on the 0.5 McFarland standard, which corresponds to approximately 1.5×10^8 CFU/mL when the optical density of a bacterial suspension ranged from 0.08 to 0.1. A 1:20 dilution was made by adding 2.0 ml of the original suspension to 38 mL of PBS buffer, and then a 1:10 dilution was prepared by adding 0.01 ml to each well to obtain a final concentration of about 5.0×10^5 CFU/mL.
(§1) To assess the effectiveness of KS against bacteria and fungi, several tests were conducted in accordance with the Antimicrobial Susceptibility Testing Standards outlined by the Clinical and Laboratory Standards Institute (Malvern, Pennsylvania, USA) (CLSI Mo2-A12, 2015) with some modifications, including the minimal inhibitory concentration (MIC), and an agar diffusion disc test. Potassium sorbate solutions with concentrations ranging from 0.5 to 8.0 mg/ml were combined with bacterial cells (10^5 CFU/mL) and fungal spores (105 conidia/mL) in TSB medium with a pH adjusted to 5.5 for bacteria and in Potato Dextrose Broth (“PDB”) medium (with an original pH of 5.5) for fungi. They were then incubated at 37° C. (for E. coli) for 24 hours and 25° C. (for P. chrysogenum) for 6 days. To determine the minimum inhibitory concentration (“MIC”) of antimicrobial substances, optical density (“OD”) at 600 nm was measured through a Bioscreen C device (Oy Growth Curves Ab Ltd., Turku, Finland) using turbidimetric measurements. The MIC refers to the lowest concentration of antimicrobial that prevents visible growth of microorganisms after incubation. For fungal growth, the MIC was determined based on the inhibition of mycelial growth. The negative control was added the same volume of deionized water without potassium sorbate to observe the growth of bacteria and fungi. Furthermore, to determine assess the survivability of cells and spores when exposed to potassium sorbate for 18 hours, microbial counts were expressed as the logarithm of colony forming units per ml (log CFU/mL). Each measurement was performed in triplicate.

[2] = tested on: Penicillium chrysogenum; test: microbe, parasite or virus in culture
Experimental: as §1

[3] = tested on: P. chrysogenum; details: for spores of P. chrysogenum: concentrations greater than 4 mg/ml, after 6 days of incubation
Experimental: as §1

[4] = tested on: E. coli; details: concentration of >3 mg/ml; 24 hours at 37° C.
[5] = tested on: E. coli O157:H7 (ATCC 35150); details: separate study; cited from earlier work
[6] = tested on: Penicillium italicum; details: cited from earlier work
[7] = room temperature; cited from earlier work
[8] = previous study; cited from earlier work
[9] = tested on: bacteria and fungi; details: against bacteria and fungi
Experimental: as §1

Compound: C/C=C/C=C/C(=O)[O-].[K+] [commercial KS, trans, trans-2,4-hexadienoic acid potassium salt]
- MIC ([1]; Escherichia coli, 18941, 24 h, pH 5.5, read-out: MIC against E. coli): 2000 to 4000 µg/mL
- inhibitory effect on the growth of E. coli ([1]; concentration of 2 mg/ml): mild inhibitory effect
- inhibitory effect on the growth of E. coli ([1]; concentration of 4 mg/ml): significant inhibitory effect
- MIC ([2]; Penicillium chrysogenum, 144 h, pH 5.5, read-out: MIC against P. chrysogenum (preventing mycelial growth)): 8000 µg/mL
- spores of P. chrysogenum [3]: significantly decreased
- inhibitory effects against E. coli (CFU count) [4]: significant inhibitory effects

Compound: C/C=C/C=C/C(=O)[O-].[K+] [KS, potassium sorbate]
- MIC against E. coli O157:H7 (ATCC 35150) [5]: 1.6 mg/mL
- MIC against Penicillium italicum [6]: 15 mg/mL
- solubility in water [7]: 58.5 g per 100 ml

Compound: C/C=C/C=C/C(=O)[O-].[K+] [trans, trans-potassium sorbate]
- antimicrobial activity compared with the mixture of isomers [8]: higher antimicrobial activity than the mixture of isomers

Compound: C/C=C/C=C\C(=O)[O-].[K+] [TAL-derived KS, cis-2, trans-4 potassium sorbate]
- inhibitory effect on the growth of E. coli ([1]; concentration of 2 mg/ml): mild inhibitory effect
- inhibitory effect on the growth of E. coli ([1]; concentration of 4 mg/ml): significant inhibitory effect
- antifungal activities compared with commercial KS [2]: same antifungal activities as commercial KS
- MIC against P. chrysogenum (preventing mycelial growth) ([2]; PDB medium pH 5.5, 25° C., 6 days): 6 mg/mL
- inhibition of P. chrysogenum growth as compared to C-KS ([3]; concentration of 6 mg/mL, 6 days of incubation): significant inhibition
- spores of P. chrysogenum [3]: significantly decreased
- antimicrobial activity compared with commercial KS [9]: comparable antimicrobial activities
- inhibitory effects against E. coli (CFU count) [4]: significant inhibitory effects

— patent US20250197337A1, “CONVERSION OF TRIACETIC ACID LACTONE TO POTASSIUM SORBATE” (priority 2023, published 2025)
